{"source": "patent US8318452B2", "about": "“Solid culture medium for the detection and/or the species discrimination of glycopeptide-resistant enterococci” (priority 2006, dated 2012)", "origin": "cited, not measured here", "key": {"[1]": {"system": "VanC type glycopeptide-resistant enterococci", "settings": "Type of glycopeptide resistance VanC"}, "[2]": {"system": "VanB type glycopeptide-resistant enterococci", "settings": "Type of glycopeptide resistance VanB"}}}
{"substance": "teicoplanin", "values": [{"measurement": "MIC", "setting": "[1]", "result": "0.5 to 1", "unit": "µg/mL"}, {"measurement": "MIC", "setting": "[2]", "result": "0.5 to 1", "unit": "µg/mL"}]}
